# Measured values taken from patent publication US7649092B2, “Urea derivatives as calcium channel blockers” (Neuromed Pharmaceuticals Ltd., priority 2004, dated 2010).
# pIC50: −log10 of the molar value. Read-outs that look alike come from different tables or passages of the source.
# How the values were obtained:
# [1] = target: T1, rat brain N-type calcium channel subunits (α1B+α2δ+β1b cDNA subunits) (Rattus norvegicus, UniProt Q02294); assay: N-type calcium channel block, whole cell patch clamp in HEK 293 cells; type: cell-based; details: holding potential −80 mV to +10 mV
# T1 construct: expressed in transfected cells
# Procedure: N-type calcium channel blocking activity was assayed in human embryonic kidney cells, HEK 293, stably transfected with the rat brain N-type calcium channel subunits (α1B+α2δ+β1b cDNA subunits). Alternatively, N-type calcium channels (α1B+α2δ+β1b cDNA subunits), L-type channels (α1C+α2δ+β1b cDNA subunits) and P/Q-type channels (α1A+α2δ+β1b cDNA subunits) were transiently expressed in HEK 293 cells. Briefly, cells were cultured in Dulbecco's modified eagle medium (DMEM) supplemented with 10% fetal bovine serum, 200 U/ml penicillin and 0.2 mg/ml streptomycin at 37° C. with 5% CO2. At 85% confluency cells were split with 0.25% trypsin/1 mM EDTA and plated at 10% confluency on glass coverslips. At 12 hours the medium was replaced and the cells transiently transfected using a standard calcium phosphate protocol and the appropriate calcium channel cDNA's. Fresh DMEM was supplied and the cells transferred to 28° C./5% CO2. Cells were incubated for 1 to 2 days prior to whole cell recording.
# Whole cell patch clamp experiments were performed using an Axopatch 200B amplifier (Axon Instruments, Burlingame, Calif.) linked to a personal computer equipped with pCLAMP software. The external and internal recording solutions contained, respectively, 5 mM BaCl2, 10 mM MgCl2, 10 mM HEPES, 40 mM TEAC1, 10 mM glucose, 87.5 mM CsCl (pH 7.2) and 108 mM CsMS, 4 mM MgCl2, 9 mM EGTA, 9 mM HEPES (pH 7.2). Currents were typically elicited from a holding potential of −80 mV to +10 mV using Clampex software (Axon Instruments). Typically, currents were first elicited with low frequency stimulation (0.067 Hz) and allowed to stabilize prior to application of the compounds. The compounds were then applied during the low frequency pulse trains for two to three minutes to assess tonic block, and subsequently the pulse frequency was increased to 0.2 Hz to assess frequency dependent block. Data were analyzed using Clampfit (Axon Instruments) and SigmaPlot 4.0 (Jandel Scientific).
# [2] = target: T2, human DiG T-type channels (Homo sapiens, UniProt O43497); assay: T-type calcium channel block, whole-cell patch clamp in HEK cell lines; type: cell-based
# T2 construct: expressed in transfected cells
# T2 sequence (O43497 whole entry): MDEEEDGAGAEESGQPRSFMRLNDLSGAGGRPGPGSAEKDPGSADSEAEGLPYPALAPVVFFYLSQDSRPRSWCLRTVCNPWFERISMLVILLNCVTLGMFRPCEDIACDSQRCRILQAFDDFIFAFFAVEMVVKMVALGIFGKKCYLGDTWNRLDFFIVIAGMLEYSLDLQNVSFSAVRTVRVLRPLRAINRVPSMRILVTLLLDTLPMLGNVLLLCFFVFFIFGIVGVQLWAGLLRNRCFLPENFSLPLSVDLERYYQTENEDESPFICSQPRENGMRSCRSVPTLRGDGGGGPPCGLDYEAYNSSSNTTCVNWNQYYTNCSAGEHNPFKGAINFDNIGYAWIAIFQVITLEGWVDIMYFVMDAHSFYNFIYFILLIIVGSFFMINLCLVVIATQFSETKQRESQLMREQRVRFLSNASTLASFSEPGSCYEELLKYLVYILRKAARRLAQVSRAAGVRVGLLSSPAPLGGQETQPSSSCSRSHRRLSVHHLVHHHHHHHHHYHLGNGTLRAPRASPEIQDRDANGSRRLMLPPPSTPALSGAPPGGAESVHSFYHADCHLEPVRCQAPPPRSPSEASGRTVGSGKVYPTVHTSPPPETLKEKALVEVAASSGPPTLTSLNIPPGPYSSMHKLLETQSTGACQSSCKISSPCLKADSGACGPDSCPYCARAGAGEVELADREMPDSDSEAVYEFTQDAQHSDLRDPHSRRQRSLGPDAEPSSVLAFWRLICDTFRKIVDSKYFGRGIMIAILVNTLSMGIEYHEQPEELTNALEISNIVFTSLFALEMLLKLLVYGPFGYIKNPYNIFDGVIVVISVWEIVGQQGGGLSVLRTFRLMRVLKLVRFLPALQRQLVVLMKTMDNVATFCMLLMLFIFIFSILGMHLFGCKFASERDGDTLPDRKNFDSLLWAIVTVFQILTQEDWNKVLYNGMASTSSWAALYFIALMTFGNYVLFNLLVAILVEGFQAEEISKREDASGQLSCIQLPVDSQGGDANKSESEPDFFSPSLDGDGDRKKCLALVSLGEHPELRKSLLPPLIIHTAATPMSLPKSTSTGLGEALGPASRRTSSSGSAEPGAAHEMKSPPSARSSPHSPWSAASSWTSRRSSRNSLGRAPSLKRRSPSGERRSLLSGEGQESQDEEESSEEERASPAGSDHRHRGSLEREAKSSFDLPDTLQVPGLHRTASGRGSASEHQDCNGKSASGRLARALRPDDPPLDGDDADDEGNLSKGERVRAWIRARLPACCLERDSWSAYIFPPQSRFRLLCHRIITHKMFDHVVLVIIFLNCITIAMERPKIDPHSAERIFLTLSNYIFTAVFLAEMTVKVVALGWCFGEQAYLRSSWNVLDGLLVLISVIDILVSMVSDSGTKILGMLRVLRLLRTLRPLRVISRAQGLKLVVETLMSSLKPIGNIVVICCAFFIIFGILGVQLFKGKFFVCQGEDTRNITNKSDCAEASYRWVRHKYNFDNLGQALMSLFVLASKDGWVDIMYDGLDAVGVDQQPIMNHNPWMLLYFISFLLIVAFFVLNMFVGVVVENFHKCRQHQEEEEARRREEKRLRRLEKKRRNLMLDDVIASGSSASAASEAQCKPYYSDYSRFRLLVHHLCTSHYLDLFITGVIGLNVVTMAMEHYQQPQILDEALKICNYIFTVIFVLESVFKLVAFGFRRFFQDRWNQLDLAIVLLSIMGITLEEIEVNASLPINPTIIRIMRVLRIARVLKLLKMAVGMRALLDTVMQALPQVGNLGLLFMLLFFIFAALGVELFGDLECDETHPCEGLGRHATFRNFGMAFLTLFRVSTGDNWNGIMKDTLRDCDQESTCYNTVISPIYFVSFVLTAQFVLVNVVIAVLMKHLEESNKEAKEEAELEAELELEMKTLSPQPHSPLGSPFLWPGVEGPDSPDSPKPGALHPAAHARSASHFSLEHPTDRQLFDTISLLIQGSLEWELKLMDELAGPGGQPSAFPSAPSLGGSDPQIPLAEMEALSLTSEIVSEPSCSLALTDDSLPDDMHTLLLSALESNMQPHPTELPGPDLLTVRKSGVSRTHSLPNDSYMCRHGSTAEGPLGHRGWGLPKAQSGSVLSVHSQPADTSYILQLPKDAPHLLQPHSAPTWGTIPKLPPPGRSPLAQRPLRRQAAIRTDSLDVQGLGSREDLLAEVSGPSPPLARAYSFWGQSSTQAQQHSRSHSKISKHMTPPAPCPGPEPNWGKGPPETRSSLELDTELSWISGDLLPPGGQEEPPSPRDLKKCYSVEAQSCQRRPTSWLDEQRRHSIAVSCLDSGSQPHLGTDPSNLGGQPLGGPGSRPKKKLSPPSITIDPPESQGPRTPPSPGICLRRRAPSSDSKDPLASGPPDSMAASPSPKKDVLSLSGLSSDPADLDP
# Procedure: Standard patch-clamp techniques were employed to identify blockers of T-type currents. Briefly, previously described HEK cell lines stably expressing human DiG T-type channels were used for all the recordings (passage #: 4-20, 37° C., 5% CO2). To obtain T-type currents, plastic dishes containing semi-confluent cells were positioned on the stage of a ZEISS AXIOVERT S100 microscope after replacing the culture medium with external solution (see below). Whole-cell patches were obtained using pipettes (borosilicate glass with filament, O.D.: 1.5 mm, I.D.: 0.86 mm, 10 cm length), fabricated on a SUTTER P-97 puller with resistance values of ˜5 MΩ (see below for internal solution).
# In the non-inactivating protocol, the holding potential is set at −110 mV and with a pre-pulse at −100 mV for 1 second prior to the test pulse at −40 mV for 50 ms. […]
# Test compounds were dissolved in external solution, 0.1-0.01% DMSO. After ˜10 min rest, they were applied by gravity close to the cell using a WPI microfil tubing. The “non-inactivated” pre-pulse was used to examine the resting block of a compound. The “inactivated” protocol was employed to study voltage-dependent block. However, the initial data shown below were mainly obtained using the non-inactivated protocol only. IC50 values are shown for various compounds of the invention in Table 5.
# [3] = tested on: SNL rats, tactile allodynia; assay: Spinal nerve ligation (SNL) model of neuropathic pain, tactile allodynia (von Frey filaments); type: in vivo; details: rat SNL, 30 mg/kg orally in propylene glycol
# From the text: (§1) Spinal nerve ligation (SNL) injury was induced using the procedure of Kim and Chung, (Kim, S. H., et al., Pain (1992) 50:355-363) in male Sprague-Dawley rats (Harlan; Indianapolis, Ind.) weighing 200 to 300 grams. Anesthesia was induced with 2% halothane in O2 at 2 L/min and maintained with 0.5% halothane in O2. After surgical preparation of the rats and exposure of the dorsal vertebral column from L4 to S2, the L5 and L6 spinal nerves were tightly ligated distal to the dorsal root ganglion using 4-0 silk suture. The incision was closed, and the animals were allowed to recover for 5 days. […] Sham control rats underwent the same operation and handling as the experimental animals, but without SNL.
# The assessment of tactile allodynia consisted of measuring the withdrawal threshold of the paw ipsilateral to the site of nerve injury in response to probing with a series of calibrated von Frey filaments. Each filament was applied perpendicularly to the plantar surface of the ligated paw of rats kept in suspended wire-mesh cages. Measurements were taken before and after administration of drug or vehicle. Withdrawal threshold was determined by sequentially increasing and decreasing the stimulus strength (“up and down” method), analyzed using a Dixon non-parametric test (Chaplan, S. R., et al., J Pharmacol Exp Ther (1994) 269:1117-1123), and expressed as the mean withdrawal threshold.
# (§2) Compound 1 was administered orally in propylene glycol solution at a dose of 30 mg/kg. The percent activity was calculated for block of tactile allodynia, thermal hyperalgesia and analgesia.
# [4] = tested on: rat formalin model; assay: Formalin-induced pain model (paw flinches); type: in vivo; details: 30 mg/kg IP, 10 min before formalin, ±SEM, saline control=100%
# Procedure: The effects of intrathecally delivered compounds of the invention on the rat formalin model were measured. The compounds were reconstituted to stock solutions of approximately 10 mg/ml in propylene glycol. Eight Holtzman male rats of 275-375 g size were randomly selected per test article.
# The following study groups were used, with test article, vehicle control (propylene glycol) and saline delivered intraperitoneally (IP):
# Prior to initiation of drug delivery baseline behavioral and testing data were taken.
# On the morning of testing, a small metal band (0.5 g) was loosely placed around the right hind paw. The rat was placed in a cylindrical Plexiglas chamber for adaptation a minimum of 30 minutes. Test Article or Vehicle Control Article was administered 10 minutes prior to formalin injection (50 μl of 5% formalin) into the dorsal surface of the right hind paw of the rat. The animal was then placed into the chamber of the automated formalin apparatus where movement of the formalin injected paw was monitored and the number of paw flinches tallied by minute over the next 60 minutes (Malmberg, A. B., et al., Anesthesiology (1993) 79:270-281).
# Results are presented as Maximum Possible Effect ±SEM, where saline control=100%.
# [5] = tested on: SNL rats, thermal hyperalgesia / anti nociception; assay: Spinal nerve ligation (SNL) model of neuropathic pain, paw-withdrawal latency to thermal stimulus (Hargreaves); type: in vivo; details: rat SNL, 30 mg/kg orally in propylene glycol
# From the text: as §1
# The method of Hargreaves and colleagues (Hargreaves, K., et al., Pain (1988) 32:77-88) was employed to assess paw-withdrawal latency to a thermal nociceptive stimulus. Rats were allowed to acclimate within a Plexiglas enclosure on a clear glass plate maintained at 30° C. A radiant heat source (i.e., high intensity projector lamp) was activated with a timer and focused onto the plantar surface of the affected paw of nerve-injured or carrageenan-injected rats. Paw-withdrawal latency was determined by a photocell that halted both lamp and timer when the paw was withdrawn. The latency to withdrawal of the paw from the radiant heat source was determined prior to carrageenan or […], 3 hours after carrageenan or 7 days after L5/L6 SNL but before drug and after drug administration. A maximal cut-off of 40 seconds was employed to prevent tissue damage. Paw withdrawal latencies were thus determined to the nearest 0.1 second. Reversal of thermal hyperalgesia was indicated by a return of the paw withdrawal latencies to the pre-treatment baseline latencies (i.e., 21 seconds). Anti nociception was indicated by a significant (p<0.05) increase in paw withdrawal latency above this baseline. Data were converted to % anti hyperalgesia or % anti nociception by the formula: (100×(test latency−baseline latency)/(cut-off−baseline latency) where cut-off was 21 seconds for determining anti hyperalgesia and 40 seconds for determining anti nociception.
# as §2
# [6] = tested on: T-type over L-type channels; details: literature (Heady et al. 2001); cited from earlier work
compound,measurement,setting,value
"O=C(NC(c1ccccc1)c1ccccc1)N1CCN(C(c2ccccc2)c2ccccc2)CC1 [Compound 1, 4-Benzhydryl-piperazine-1-carboxylic acid benzhydryl-amide]",pIC50,"[1]; low frequency stimulation 0.067 Hz (tonic block), read-out: IC50 @ 0.067 Hz",6.70
same,pIC50,"[1]; pulse frequency 0.2 Hz (frequency dependent block), read-out: IC50 @ 0.2 Hz",6.82
same,pIC50,"[2]; inactivation protocol, @ −80 mV, read-out: IC50 @ −80 mV",6.64
same,pIC50,"[2]; non-inactivating protocol, pre-pulse −100 mV, test pulse −40 mV, read-out: IC50 @ −100 mV",6.23
same,Tactile Allodynia (% Activity),[3]; 30 min,35.77 ± 10.38 % Activity
same,Tactile Allodynia (% Activity),[3]; 60 min,80.89 ± 13.30 % Activity
same,Tactile Allodynia (% Activity),[3]; 90 min,35.49 ± 9.01 % Activity
same,Tactile Allodynia (% Activity),[3]; 120 min,19.61 ± 6.78 % Activity
same,Tactile Allodynia (% Activity),[3]; 150 min,1.98 ± 1.42 % Activity
same,Phase I (% MPE),[4],58 ± 15 % MPE
same,Phase II Total (% MPE),[4],75 ± 12 % MPE
same,Phase IIA (% MPE),[4],65 ± 12 % MPE
same,Phase IIB (% MPE),[4],99 ± 15 % MPE
same,Analgesia (% Activity),[5]; 30 min,82.47 ± 10.11 % Activity
same,Thermal Hyperalgesia (% Activity),[5]; 30 min,46.98 ± 15.09 % Activity
same,Analgesia (% Activity),[5]; 60 min,88.95 ± 8.30 % Activity
same,Thermal Hyperalgesia (% Activity),[5]; 60 min,97.86 ± 2.14 % Activity
same,Analgesia (% Activity),[5]; 90 min,9.02 ± 5.66 % Activity
same,Thermal Hyperalgesia (% Activity),[5]; 90 min,49.07 ± 10.17 % Activity
same,Analgesia (% Activity),[5]; 120 min,0.00 ± 0.00 % Activity
same,Thermal Hyperalgesia (% Activity),[5]; 120 min,33.36 ± 10.62 % Activity
COCC(=O)O[C@]1(CCN(C)CCCc2nc3ccccc3[nH]2)CCc2cc(F)ccc2[C@@H]1C(C)C [Mibefradil],selective for T-type over L-type channels,[6],10-30 fold
